Measurements reported in patent US20240002397A1, “3-AMINO PYRROLIDINE AND PIPERIDINE MACROCYCLIC OREXIN RECEPTOR AGONISTS” (Merck Sharp & Dohme LLC, priority 2020, published 2024).

target: T1, human OX2R (Homo sapiens, UniProt O43614); test: IPOne (IP-1) orexin receptor agonist assay in CHO cells expressing human OX2R; conditions: CHO, hOX2R IP-One; percentage of mean max effect of a reference compound at 1 uM with 100% activity
T1 sequence (O43614 1-444): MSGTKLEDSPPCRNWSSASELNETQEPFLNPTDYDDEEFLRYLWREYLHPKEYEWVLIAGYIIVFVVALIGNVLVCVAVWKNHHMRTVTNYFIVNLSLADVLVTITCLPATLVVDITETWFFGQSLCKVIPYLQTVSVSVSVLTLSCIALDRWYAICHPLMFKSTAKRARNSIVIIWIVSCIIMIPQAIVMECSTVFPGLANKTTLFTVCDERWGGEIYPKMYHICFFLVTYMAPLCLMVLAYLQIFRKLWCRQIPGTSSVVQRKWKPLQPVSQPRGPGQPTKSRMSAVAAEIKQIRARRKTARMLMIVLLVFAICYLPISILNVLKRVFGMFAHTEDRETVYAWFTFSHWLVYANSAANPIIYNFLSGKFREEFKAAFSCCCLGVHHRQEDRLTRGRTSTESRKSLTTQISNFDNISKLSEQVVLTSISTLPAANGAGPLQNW

SMILES | Emax [%]
COc1cc2nc(c1)C1CCC(CC1)OCC1[C@@H](NS(=O)(=O)C(F)F)C[C@@H](C)N1C(=O)OCCO2 (stereo partly drawn) [Example 105, 1,1-difluoro-N-((2^1R,2^4R,5^2R,5^3S,5^5R)-14-methoxy-5^5-methyl-6-oxo-3,7,10-trioxa-1(2,6)-pyridina-5(2,1)-pyrrolidina-2(1,4)-cyclohex-anacyclodecaphane-5^3-yl)methanesulfonamide] | 99.7
COc1cc2nc(c1)N(C)CCCOC(=O)N1C(COC3CCC2CC3)[C@@H](NS(C)(=O)=O)C[C@H]1C (stereo partly drawn) [Example 95, N-((2^1S,2^4S,5^2R,5^3S,5^5R)-1^4-methoxy-5^5,1^1-dimethyl-6-oxo-3,7-dioxa-11-aza-1(2,6)-pyridina-5(2,1)-pyrrolidina-2(1,4)-cyclohexanacycloundecaphane-5^3-yl)methanesulfonamide] | 98.4
C[C@@H]1C[C@H](NS(C)(=O)=O)C2COC3CCC(CC3)c3cccc(c3)OCCCOC(=O)N21 (stereo partly drawn) [Example 18, N-((2^1S,2^4S, 5^2R,5^3S,5^5R)-5^5-methyl-6-oxo-3,7,11-trioxa-5(2,1)-pyrrolidina-1(1,3)-benzena-2(1,4)-cyclohexana-cyclounde-caphane-5^3-yl) methanesulfonamide] | 100
